Patent US20140121370A1, “NOVEL METHOD FOR PREPARING CEFMENOXIME HYDROCHLORIDE COMPOUND” (Hainan Lingkang Pharmaceutical Co., Ltd., priority 2011, published 2014)
Structures can show the parent of a compound that is named as a salt.

Assay: Solubility of Cefmenoxime hydrochloride in organic solvents
Format: physicochemical
Excerpt: According to the instant invention, after the treatment of step 1), these impurities can be separated from Cefmenoxime hydrochloride.
Treating Cefmenoxime hydrochloride crude directly with a good-poor solvent precipitation method can not achieve the desired purity.

solubility in acetone (solvent acetone): almost insoluble | solubility in ethanol (solvent ethanol): almost insoluble | solubility in ethyl acetate (solvent ethyl acetate): almost insoluble | solubility in formamide (solvent formamide): soluble | solubility in methanol (solvent methanol): slightly soluble
Structure (SMILES): CO/N=C(\C(=O)N[C@@H]1C(=O)N2C(C(=O)O)=C(CSc3nnnn3C)CS[C@H]12)c1csc(N)n1 [Cefmenoxime hydrochloride, (6R,7R)-7-[(Z)-2-(2-amino-thiazol-4-yl)-2-methoxyiminoacetylamino]-3-[[(1-methyl-1H-tetrazol-5-yl)-sulfanyl]methyl]-8-oxo-5-thia-1-azabicyclo[4.2.0]oct-2-ene-2-carboxylic acid hydrochloride (2:1)]
